Literature values as cited in patent US9636304B2, “Pharmaceutical composition comprising citrate and bicarbonate salts, and use thereof for treating cystinuria” (ADVICENNE, priority 2010, dated 2017).

Settings: prior art, oral

O=C([O-])CC(O)(CC(=O)[O-])C(=O)[O-].[K+].[K+].[K+] [potassium citrate]
gastric tolerance: mediocre
